Assay results as given in patent publication US6448256B1, “Antibiotic prodrugs” (University of Massachusetts, priority 1999, dated 2002).
≈ marks a conversion by molar mass, not a printed value. Where “and” joins values, the source holds several entries; their conditions need not be identical. Equal values may be shown once. Read-outs that look alike come from different tables or passages of the source.

Columns and labels:
[1] = tested on: S. aureus; assay: MIC against S. aureus (methicillin-sensitive); format: cell-based; settings: Staphylococcus aureus, read-out: MIC S. aureas
Description: (§1) To further investigate the antibacterial and/or DNA pol III inhibitory activity of various drug compounds, various ester-containing moieties N-linked to the EMAU core were produced as described in Example 1. These prodrugs were assayed for inhibition of B. subtilis DNA pol III and antibiotic activity against a number of bacteria.
(§2) The minimal inhibitory concentrations (MICs) of the four N3-substituted agents and EMAU were determined for B. subtilis (BS), methicillin-sensitive and resistant S. aureus (SA & MRSA), vancomycin-sensitive and resistant E. fecalis (EF& VREF), vancomycin-resistant E. fecium (VREF*), and E. coli (EC) as a Gram-negative control.

[2] = tested on: E. fecalis; assay: MIC against E. fecalis; format: cell-based; settings: Table 6; read-out: MIC E. fecalis
Description: as §1, §2

[3] = Solubility in water; format: physicochemical; settings: 25° C.
Source text: The prodrug 3-(L-valylbutyl)-EMAU (Val-B-EMAU, 4a) was synthesized as a hydrochloride. The structure was confirmed by NMR. The compound had high solubility in water. […] Two different synthesis methods were used.

[4] = Plasma pharmacokinetics after oral administration to mice; format: in vivo
Description: (e) Uptake from subcutaneous (sc), intraperitoneal (ip), and oral (Po) routes, Oral dosing can be performed by gavage with a small stomach tube to DecapiCone-restrained animals. […] At specific times following administration (e.g., 15, 30, 60, 90, 150 and 240 minutes), two mice are sacrificed and their plasma samples prepared and analyzed by HPLC as described above in (d). Following decapitation, the site of drug application in each animal's carcass is dissected and inspected visually for evidence of precipitation.
Each value plotted in FIG. 4 is an average of two measurement, each in a different animal.

[5] = target: B. subtilis DNA pol III (Bacillus subtilis, UniProt P13267); assay: Inhibition of B. subtilis DNA pol III (Ki); format: biochemical
Chain of B. subtilis DNA pol III (P13267 whole entry): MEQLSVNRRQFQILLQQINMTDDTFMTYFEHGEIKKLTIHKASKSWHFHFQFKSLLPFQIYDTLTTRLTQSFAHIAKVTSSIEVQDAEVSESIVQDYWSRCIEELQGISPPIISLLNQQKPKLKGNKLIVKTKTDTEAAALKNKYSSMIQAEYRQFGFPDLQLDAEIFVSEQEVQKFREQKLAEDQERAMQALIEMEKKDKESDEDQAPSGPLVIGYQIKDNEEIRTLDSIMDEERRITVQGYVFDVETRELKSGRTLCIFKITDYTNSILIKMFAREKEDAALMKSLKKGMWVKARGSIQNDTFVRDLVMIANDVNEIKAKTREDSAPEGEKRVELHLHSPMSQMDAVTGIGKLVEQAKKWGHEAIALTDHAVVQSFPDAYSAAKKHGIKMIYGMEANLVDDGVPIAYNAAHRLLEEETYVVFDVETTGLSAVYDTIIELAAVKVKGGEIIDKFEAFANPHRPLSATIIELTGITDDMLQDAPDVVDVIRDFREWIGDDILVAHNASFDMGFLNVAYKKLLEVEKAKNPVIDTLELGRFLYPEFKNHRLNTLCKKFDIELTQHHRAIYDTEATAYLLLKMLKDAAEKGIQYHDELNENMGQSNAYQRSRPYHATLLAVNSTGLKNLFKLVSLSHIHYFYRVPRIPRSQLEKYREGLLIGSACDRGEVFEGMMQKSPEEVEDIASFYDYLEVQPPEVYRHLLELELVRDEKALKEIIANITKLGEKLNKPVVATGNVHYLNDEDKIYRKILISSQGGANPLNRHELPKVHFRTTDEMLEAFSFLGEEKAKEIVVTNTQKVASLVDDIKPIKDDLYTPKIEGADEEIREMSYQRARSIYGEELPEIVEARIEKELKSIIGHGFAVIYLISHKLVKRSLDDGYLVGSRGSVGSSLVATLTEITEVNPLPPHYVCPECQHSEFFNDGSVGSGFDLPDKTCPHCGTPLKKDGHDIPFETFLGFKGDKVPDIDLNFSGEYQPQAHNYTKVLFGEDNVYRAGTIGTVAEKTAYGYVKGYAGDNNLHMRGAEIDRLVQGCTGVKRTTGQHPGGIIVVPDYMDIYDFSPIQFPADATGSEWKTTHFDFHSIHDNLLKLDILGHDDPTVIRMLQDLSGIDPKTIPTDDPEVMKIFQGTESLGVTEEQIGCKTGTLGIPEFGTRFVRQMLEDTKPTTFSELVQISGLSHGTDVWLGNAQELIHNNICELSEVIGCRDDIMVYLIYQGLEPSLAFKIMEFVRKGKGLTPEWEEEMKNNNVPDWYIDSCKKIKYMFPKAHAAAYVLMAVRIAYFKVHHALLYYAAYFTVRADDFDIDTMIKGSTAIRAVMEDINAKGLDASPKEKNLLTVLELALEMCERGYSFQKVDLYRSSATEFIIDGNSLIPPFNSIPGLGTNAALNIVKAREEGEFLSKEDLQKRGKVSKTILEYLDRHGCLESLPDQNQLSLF
Description: as §1
The competitive inhibitor constants (Ki) of selected EMAU compounds were determined with three different pol Ills: the pol III enzyme from Bacillus subtilis (BS pol III), and the pol III enzymes of the clinically relevant pathogens, Enterococcus fecalis (EF pol III) and Staphylococcus aureus (SA pol 111).

[6] = tested on: B. subtilis; assay: MIC against B. subtilis; format: cell-based; settings: Bacillus subtilis, Table 6; read-out: MIC B. subtilis
Description: as §1, §2

[7] = Plasma pharmacokinetics after intravenous administration to mice; format: in vivo; settings: for half-life: mouse, plasma, iv, 25 mg/kg
Description: (d) Elimination halfife and apparent volume of distribution. An appropriate dose of each agent (the maximum permitted by the results of the above dose/toxicity studies) is injected via the tail vein to a series of mice (e.g., 12). At specific times following injection (e.g., 10, 20, 30, 45, 90, and 150 minutes), mice (e.g., a pair) are restrained in DecapiCones and decapitated, and their blood collected individually by exsanguination into a sterile test tube.
The blood samples are centrifuged to yield clear plasma (yield: 0.4-0.6 ml per mouse). Approximately 0.2 ml of the plasma sample are used for HPLC analysis, using conditions established herein for quantitation of the compound. The individual plasma levels for each time point are averaged, and the data are analyzed to estimate Vd and half-life by established methods (Gibaldi, M. and D. Perrier. Pharmacokinetics. Marcel Dekker, Inc., New York, 1975).
Solutions of Val-B-EMAU in saline were next injected into the tail veins of mice at a dose of 25 mg/kg body weight. Animals were sacrificed at various times after dosing, and plasma was isolated and subjected to HPLC analysis.
Each value plotted in FIG. 3 represents the average of four measurements, each in a different animal.

[8] = tested on: S. aureus; assay: Bactericidal activity (killing) against S. aureus; format: cell-based; settings: 2, 4, and 8× MIC, killing continued for 24 hours
[9] = Prodrug conversion in mouse plasma in vitro (HPLC); format: in vitro ADME; settings: mouse
Description: The conversion rate of prodrugs can be measured by first establishing a reverse phase HPLC method for the detection of both prodrug and drug in a biological sample such as plasma or serum. A stock solution of prodrug, usually in saline, is diluted 1:5 in animal plasma or saline. […] If necessary, the sample can be thawed in a 37° C. water bath. Aliquots of the diluted sample are taken at 15, 30, 45, 60, 90, 120, and 180 minutes. Longer time points are usually needed for saline solutions because the rates of spontaneous hydrolysis are much longer than for enzyme-catalyzed hydrolysis. The aliquots are analyzed at a 1:10 dilution using HPLC, and the fraction of prodrug which has been converted at each time point calculated.
The rate of formation of the drug and the rate of decay of the prodrug had doubling and half-life times, respectively, of about 30 minutes. In contrast, the estimated half-life of Val-B-EMAU in physiological saline at 37° C. was greater then 5000 hours. The mechanism for the decomposition of Val-B-EMAU by plasma is presumed to involve esterases in the circulation.
To further define the conversion rate of Val-B-EMAU (4a), the prodrug was incubated in 80% mouse plasma.

[10] = tested on: S. aureus (methicillin-sensitive Smith strain); assay: ip/ip mouse protection against lethal S. aureus infection; format: in vivo, mice; set-up: mice protected from death: dose or concentration left out as unconfirmed; settings: for animals protected from death: 10 mg/kg, ten animals
Description: Step 1: Screening—Each candidate prodrug is screened for activity in an ip/ip S. aureus protection model. Candidates that display efficacy equivalent to that of HB-EMAU and HB-IMAU are selected for advanced pharmacokinetic analysis and application in the more relevant mouse thigh model of infection.
The efficacy of the propyl derivatives was tested against murine staphylococcal infection in vivo. A simple “ip/ip” system was used, in which 20 gram mice (10 each) were injected ip (intraperitoneally) with a lethal dose (2.3×10^7 CFU) of the methicillin-sensitive Smith strain of S. aureus. The mice were then immediately injected ip with the antibiotic agent as a 1:9 mixture of DMSO:peanut oil. Vancomycin was used as the positive control drug.
Both hydroxybutyl compounds were tested at 10 mg/kg in the mouse protection experiment against lethal S. aureus infection described in Example 4 above.

[11] = tested on: S. aureus; assay: Mouse thigh infection model; format: in vivo, mice; settings: ip in saline, 40 mg/kg every four hours
Source text: The mouse thigh infection model has been pioneered and used by Craig and colleagues (Craig, W. A., Redington, J. and S. C. Ebert (1991) J. Antimicr. Chemother. 27:Suppl C, 29-40; Leggett, J. E., Ebert, S., Fantin, B. and W. A. Craig (1991) Scand. J. Inf. Dis. 74:179-184). It represents a rational, flexible, cost-effective, and reproducible experimental approach for predicting the efficacy of a bacterial infection in a human patient. It is particularly useful in the present invention, because it is adaptable to the use of clinically relevant strains of Staphylococcus and Enterococcus.
Mice are made neutropenic to render them susceptible to infection with a wide variety of bacteria. […] The infected thigh of each animal is homogenized in sterile saline, and the bacterial concentration in the homogenate is determined by dilution and plating. […]
Testing can be carried out as follows. […] Treatment with the test agent and the positive control agent (vancomycin) is initiated at 2 hours post-infection, using a route (Po, ip, or sc), schedule, and dosing regimen determined by the agent's in vitro potency and specific pharmacokinetic properties.
The compounds are given by ip injection of 0.05 ml of a saline solution. […] Results are expressed as the log reduction in bacterial growth as a fraction of that in vehicle-treated animals.

[12] = Table 6, read-out: Ki, inhibition constant vs. B. subtilis DNA pol III

`CCc1cc(Nc2cc(=O)n(CCCCO)c(=O)[nH]2)ccc1C` [HB-EMAU] showed an MIC [1] of 6 µg/mL (≈ 18.9 µM), an MIC [2] of 6 µg/mL (≈ 18.9 µM) and a solubility [3] of roughly 30 µg/mL (≈ 94.5 µM). The “area under the curve for HB-EMAU, estimated” value ([4]; HB-EMAU administered directly) was 0.1%, the “peak concentration of HB-EMAU” value ([4]; mice, after oral VB-EMAU 100 mg/Kg) was 11.2 μM and 3.5 μg/ml and the “plasma HB-EMAU at four hours after administration” value ([4]; mice, after oral Val-B-EMAU (4a) 100 mg/Kg) was “no detectable”. The “time at which plasma level of HB-EMAU peaked” value ([4]; mice, after oral Val-B-EMAU (4a) 100 mg/Kg in physiological saline (FIG. 4)) was 60 min, the Ki ([5]; Table 1, read-out: Ki B. subtilis pol III) was 190 nM and the Ki [5, 12] was 180 nM. For the same compound, the MIC [6] was less than 3.1 µg/mL, the “time at which HB-EMAU concentration peaked” value ([7]; after iv Val-B-EMAU 25 mg/kg (FIG. 1)) was “about 20 minutes” and the half-life ([7]; after iv Val-B-EMAU 25 mg/kg (FIG. 1), read-out: half life of HB-EMAU) was roughly 43 min. The half-life ([7]; after iv Val-B-EMAU (4a) 25 mg/Kg (FIG. 3), average of four measurements, read-out: elimination half-life of HB-EMAU) was 15.6 min, the “bactericidal for S. aureus” value [8] was “bactericidal” and the “doubling time of formation of the drug” value [9] was “about 30 minutes”. For the same compound, the “animals protected from death” value ([10]; four day experiment) was “all ten animals”.
With `Cc1ccc(Nc2cc(=O)n(CCCCO)c(=O)[nH]2)cc1I` [HB-IMAU] the MIC [1] was 6 µg/mL (≈ 14.4 µM), the MIC [2] was 6 µg/mL (≈ 14.4 µM) and the Ki [5, 12] was 220 nM. For the same compound, the MIC [6] was less than 3.1 µg/mL, the “bactericidal for S. aureus” value [8] was “bactericidal” and the “animals protected from death” value ([10]; four day experiment) was “nine of ten animals”.
In the case of `CN[C@H](CC(C)C)C(=O)N[C@H]1C(=O)N[C@@H](CC(N)=O)C(=O)N[C@H]2C(=O)N[C@H]3C(=O)N[C@H](C(=O)N[C@H](C(=O)O)c4cc(O)cc(O)c4-c4cc3ccc4O)[C@H](O)c3ccc(c(Cl)c3)Oc3cc2cc(c3O[C@@H]2O[C@H](CO)[C@@H](O)[C@H](O)[C@H]2O[C@H]2C[C@](C)(N)[C@H](O)[C@H](C)O2)Oc2ccc(cc2Cl)[C@H]1O` [vancomycin, reference compound], the “log reduction in S. aureus proliferation compared with control thighs” value [11] is reported as 2-4 log, the protection of mice ([10]; 20 mg/kg, positive control) is reported as “protected all mice” and the “mice protected from death” value ([10]; control drug, four day experiment) is reported as “all ten mice”.
